Series [1] relates to P. falciparum 3D7 (Pf3D7, chloroquine-sensitive strain). Description: Pf3D7 asexual blood-stage growth inhibition, SYBR Green fluorescence assay. It counts as cell-based, Plasmodium falciparum. The conditions noted are these: for Pf3D7 selectivity index (SI, CC50/EC50): Hep G2 CC50 / Pf3D7 EC50; for EC50: Plasmodium falciparum, read-out: Pf3D7 EC50; for Antiplasmodial activity against Pf3D7 (in words): chloroquine-sensitive strain. The procedure: a. Pf3D7: 100 μL of complete media (Sigma-Aldrich’s RPMI 1640, 25 mM HEPES, 10 μg/mL gentamicin, 0.5 mM hypoxanthine supplemented with NaHCO3 and 0.5% Albumax II, 37 °C) containing compounds (50–0.3 µM) or 100 µM chloroquine were added to 96 well plates in triplicates. This was followed by the addition of 100 µL erythrocytic asexual culture of Pf3D7 (10% hematocrit and 0.25% ring stage parasitemia), maintained at atmospheric conditions of 1% oxygen, 5% carbon dioxide, and 94% nitrogen, and allowed to grow for 96 h at 37 °C. The cultures were then frozen at −80 °C overnight and thawed at 37 °C for 4 h. Aliquots (100 µL) from each well were transferred to black 96-well plates, 100 μL of 2× SYBR Green (Molecular Probes) in lysis buffer (20 mM Tris at pH 7.5, 5 mM EDTA, 0.008% saponin, 0.08% Triton X-100) was added to each well and mixed thoroughly with a pipette. The plates were incubated in the dark at room temperature for 1 h and read at λex 485 nm and λem 530 nm. Infected and untreated red blood cells (iRBC) cultures served as negative control. Percent inhibitory activities were calculated using (=100 − 100*((Sample − 100 µM CQ)/(iRBC − 100 µM CQ)) and used to plot sigmoidal inhibition curves to obtain the EC50 values.

In a further series the test system is PfNF54. Description: PfNF54 erythrocytic stage growth inhibition, [3H]-hypoxanthine incorporation assay. It counts as cell-based, Plasmodium falciparum. The procedure:
b. PfNH54 and PfK1: The growth inhibitory activities of the compounds against erythrocytic stages of PfNH54 and PfK1 were determined using the [^3H]-hypoxanthine incorporation assay as previously reported. […] The CPMs were expressed as a percentage of the CPMs from the untreated controls and used to estimate the EC50 from sigmoidal inhibition curves. Artemisinin and CQ were used as positive controls.

The next series concerns PfK1. Description: PfK1 erythrocytic stage growth inhibition, [3H]-hypoxanthine incorporation assay. The series is classed as cell-based, Plasmodium falciparum. The settings on record: multidrug-resistant strain. The protocol:
b. PfNH54 and PfK1: The growth inhibitory activities of the compounds against erythrocytic stages of PfNH54 and PfK1 were determined using the [^3H]-hypoxanthine incorporation assay as previously reported. Parasites in RPMI 1640 medium containing […] (without hypoxanthine) were treated with compounds (50–0.3 µM) in 96 well plates for 48 h at 37 °C in 92% N2, 5% CO2, and 3% O2. ^3H-hypoxanthine (0.5 μCi) was added to each well, incubated for an additional 24 h, harvested onto glass-fiber filters, and washed with distilled water. Radioactivity at each compound concentration was counted using a Betaplate™ liquid scintillation counter (Wallac, Zurich), and the results were recorded as counts per minute (CPM) per well. The CPMs were expressed as a percentage of the CPMs from the untreated controls and used to estimate the EC50 from sigmoidal inhibition curves. Artemisinin and CQ were used as positive controls.

A further series is described as follows: Cytotoxicity assay (MTT). The series is classed as cell-based, Human. The conditions noted are these: human. The procedure:
Human hepatocarcinoma cell line (Hep G2, ATCC CRL-11997TM) was used for cytotoxicity studies as previously described. The cells were grown in complete medium (DMEM:F12 containing L-glutamine and sodium bicarbonate, 10% FBS, 1% penicillin/streptomycin, Thermo Fisher Scientific) at 37 °C in 5% CO2 environment. Cells (198 µL, 5 × 10^5/mL) were seeded into 96-well plates and incubated overnight. The cells were treated with the compounds (160–1.25 µM, in triplicates) or DMSO (1%) for 72 h. The cell medium was removed and replaced with DMEM:F12 medium containing MTT (0.5 mg/mL) was added to the cells and incubated for 1.5 h. The MTT-containing medium was gently removed and replaced with DMSO (200 µL/well). The contents of each well were then repeatedly mixed with a multichannel pipette and incubated for 10 min. The plates were read at 570 nm. DMSO-treated (1%) cells were used as negative assay control and SDS (10%) was used as assay positive control. Percent cell viabilities were expressed as a percentage of the mean viability of DMSO-treated (1%) cells.

In series [2] the test system is Human hepatocarcinoma cell line (Hep G2). Description: Cytotoxicity assay (MTT). It counts as cell-based. The conditions noted are these: SDS 0.1%, assay positive control.
[3] abbreviates: 3D7, erythrocytic asexual culture, 96 h, SYBR Green.

Usually EC50 stands for the concentration needed to bring the measured effect to its halfway point. The CC50 is the concentration at which the toxic effect on the cells reaches its halfway point.

Read-outs that look alike come from different tables or passages of the source.

In the case of `CC1(C)[C@@H]2CC=C(CCOC(=O)c3cc4ccccc4nc3Cl)[C@H]1C2` (stereo in doubt) [Compound 14, 2-((1S,5R)-6,6-dimethylbicyclo[3.1.1]hept-2-en-2-yl)ethyl-2-chloroquinoline-3-carboxylate], in series [1], the “Pf3D7 selectivity index (SI, CC50/EC50)” value is listed as 13.6 and the “Antiplasmodial activity against Pf3D7 (in words)” value is reported as “moderately active”. For the same compound, in series [1] (setting [3]), the EC50 amounted to 4.04 ± 0.03 µM. In addition, in the series on PfNF54, the “Antiplasmodial activity against NF54 strain (in words)” value was “inactive”. For the same compound, in the series on PfK1, the “Antiplasmodial activity against K1 strain (in words)” value was “inactive”. Besides, the CC50 at 72 h in “Cytotoxicity assay (MTT)” (read-out: Hep G2 CC50) worked out at 55.2 ± 1.2 µM.

As for `Cc1cc(C(=O)OCC[C@@]23O[C@@H]2C[C@@H]2C[C@H]3C2(C)C)c2ccc(Cl)cc2n1` (stereo in doubt) [Compound 16, 2-((1S,2S,4R,6S)-7,7-dimethyl-3-oxatricyclo[4.1.1.0 2,4]octan-2-yl)ethyl-7-chloro-2-methylquinoline-4-carboxylate], in series [1], the “Pf3D7 selectivity index (SI, CC50/EC50)” value worked out at 1.9 and the “Antiplasmodial activity against Pf3D7 (in words)” value is “weakly active but nonselective”. The EC50 in series [1] (setting [3]) amounted to 40.4 ± 1.58 µM. Moreover, the CC50 at 72 h in “Cytotoxicity assay (MTT)” (read-out: Hep G2 CC50) is 76.8 ± 6.5 µM.

Consider `CC1(C)[C@H]2CC=C(CCOC(=O)c3cc4ccccc4[nH]3)[C@@H]1C2` [Compound 15, 2-((1R,5S)-6,6-dimethylbicyclo[3.1.1]hept-2-en-2-yl)ethyl-1H-indole-2-carboxylate], for which, in series [1], the “Pf3D7 selectivity index (SI, CC50/EC50)” value is recorded as over 8.5 and the “Antiplasmodial activity against Pf3D7 (in words)” value is given as “moderately active”. The EC50 in series [1] (3D7, 96 h) is 4.71 ± 0.07 µM. This compound also had a CC50 at 72 h in the series “Cytotoxicity assay (MTT)” (Hep G2 cells (human hepatocarcinoma cell line)) of over 40 µM.

Take `CCCCCCCCCCCCOS(=O)(=O)[O-].[Na+]` [SDS (0.1%)]: the “Hep G2 percent viability” value in series [2] is recorded as “^b 1%”.

(Values after publication PMC7917639, “Nopol-Based Quinoline Derivatives as Antiplasmodial Agents” (Molecules, 2021).)
